Entries after “also recorded” stand apart in the source; their conditions may differ.
Assays:
TRPM6 = biological target: T1, TRPM6 (Homo sapiens, UniProt Q9BX84); test: KINOMEscan; type: binding; settings: read-out: %Ctrl @ 10000nM
T1 construct: DNA label for qPCR (T7 phage fusion or DNA tag); purchased DiscoverX scanMAX; host or cells: E. coli BL21-derived (T7 phage) or HEK-293

CAMK2D = biological target: T2, CAMK2D (Homo sapiens, UniProt Q13557); test: KINOMEscan; type: binding; settings: read-out: %Ctrl @ 10000nM
T2 construct: purchased DiscoverX KINOMEscan

468 human kinases = test: KINOMEscan scanMAX panel; type: binding
INSR = biological target: T3, INSR (Homo sapiens, UniProt P06213); test: KINOMEscan; type: binding; settings: read-out: %Ctrl @ 10000nM
T3 construct: purchased DiscoverX KINOMEscan

PRKG1 = biological target: T4, PRKG1 (Homo sapiens, UniProt Q13976); test: KINOMEscan; type: binding; settings: read-out: %Ctrl @ 10000nM
T4 construct: purchased DiscoverX KINOMEscan

GRK1 = biological target: T5, GRK1 (Homo sapiens, UniProt Q15835); test: KINOMEscan; type: binding; settings: read-out: %Ctrl @ 10000nM
T5 construct: purchased DiscoverX KINOMEscan

ASK2 = biological target: T6, ASK2 (Homo sapiens, UniProt O95382); test: KINOMEscan; type: binding; settings: read-out: %Ctrl @ 10000nM
T6 construct: purchased DiscoverX KINOMEscan

EGFR(S752-I759del) = biological target: T7, EGFR(S752-I759del) (Homo sapiens, UniProt P00533, DEL752-759); test: KINOMEscan; type: binding; settings: read-out: %Ctrl @ 10000nM
T7 construct: purchased DiscoverX KINOMEscan

CAMK1 = biological target: T8, CAMK1 (Homo sapiens, UniProt Q14012); test: KINOMEscan; type: binding; settings: read-out: %Ctrl @ 10000nM
T8 construct: purchased DiscoverX KINOMEscan

PAK6 = biological target: T9, PAK6 (Homo sapiens, UniProt Q9NQU5); test: KINOMEscan; type: binding; settings: read-out: %Ctrl @ 10000nM
T9 construct: purchased DiscoverX KINOMEscan

CDK5 = biological target: T10, CDK5 (Homo sapiens, UniProt Q00535); test: KINOMEscan; type: binding; settings: read-out: %Ctrl @ 10000nM
T10 construct: purchased DiscoverX KINOMEscan

[1] = biological target: T11, ABL1(Q252H)-nonphosphorylated (Homo sapiens, UniProt P00519, Q252H); test: KINOMEscan; type: binding; settings: read-out: %Ctrl @ 10000nM
T11 construct: purchased DiscoverX KINOMEscan

ALK = biological target: T12, ALK (Homo sapiens, UniProt Q9UM73); test: KINOMEscan; type: binding; settings: read-out: %Ctrl @ 10000nM
T12 construct: purchased DiscoverX KINOMEscan

PDGFRA = biological target: T13, PDGFRA (Homo sapiens, UniProt P16234); test: KINOMEscan; type: binding; settings: read-out: %Ctrl @ 10000nM
T13 construct: purchased DiscoverX KINOMEscan

KIT = biological target: T14, KIT (Homo sapiens, UniProt P10721); test: KINOMEscan; type: binding; settings: read-out: %Ctrl @ 10000nM
T14 construct: purchased DiscoverX KINOMEscan

DDR1 = biological target: T15, DDR1 (Homo sapiens, UniProt Q08345); test: KINOMEscan; type: binding; settings: read-out: %Ctrl @ 10000nM
T15 construct: purchased DiscoverX KINOMEscan

RIOK2 = biological target: T16, RIOK2 (Homo sapiens, UniProt Q9BVS4); test: KINOMEscan; type: binding; settings: read-out: %Ctrl @ 10000nM
T16 construct: purchased DiscoverX KINOMEscan

TAK1 = biological target: T17, TAK1 (Homo sapiens, UniProt O43318); test: KINOMEscan; type: binding; settings: read-out: %Ctrl @ 10000nM
T17 construct: purchased DiscoverX KINOMEscan

FLT4 = biological target: T18, FLT4 (Homo sapiens, UniProt P35916); test: KINOMEscan; type: binding; settings: read-out: %Ctrl @ 10000nM
T18 construct: purchased DiscoverX KINOMEscan

PRKCH = biological target: T19, PRKCH (Homo sapiens, UniProt P24723); test: KINOMEscan; type: binding; settings: read-out: %Ctrl @ 10000nM
T19 construct: purchased DiscoverX KINOMEscan

MARK4 = biological target: T20, MARK4 (Homo sapiens, UniProt Q96L34); test: KINOMEscan; type: binding; settings: read-out: %Ctrl @ 10000nM
T20 construct: purchased DiscoverX KINOMEscan

FLT3(D835Y) = biological target: T21, FLT3(D835Y) (Homo sapiens, UniProt P36888, D835Y); test: KINOMEscan; type: binding; settings: read-out: %Ctrl @ 10000nM
T21 construct: purchased DiscoverX KINOMEscan

Plasma stability = type: in vitro ADME; settings: mouse, read-out: Plasma Stability T1/2
[2] = biological target: T22, RPS6KA5(Kin.Dom.1-N-terminal) (Homo sapiens, UniProt O75582); test: KINOMEscan; type: binding; settings: read-out: %Ctrl @ 10000nM
T22 construct: RPS6KA5(Kin.Dom.1-N-terminal); purchased DiscoverX KINOMEscan

BMX = biological target: T23, BMX (Homo sapiens, UniProt P51813); test: KINOMEscan; type: binding; settings: read-out: %Ctrl @ 10000nM
T23 construct: purchased DiscoverX KINOMEscan

MKNK1 = biological target: T24, MKNK1 (Homo sapiens, UniProt Q9BUB5); test: KINOMEscan; type: binding; settings: read-out: %Ctrl @ 10000nM
T24 construct: purchased DiscoverX KINOMEscan

MERTK = biological target: T25, MERTK (Homo sapiens, UniProt Q12866); test: KINOMEscan; type: binding; settings: read-out: %Ctrl @ 10000nM
T25 construct: purchased DiscoverX KINOMEscan

TRKA = biological target: T26, TRKA (Homo sapiens, UniProt P04629); test: KINOMEscan; type: binding; settings: read-out: %Ctrl @ 10000nM
T26 construct: purchased DiscoverX KINOMEscan

PIM2 = biological target: T27, PIM2 (Homo sapiens, UniProt Q9P1W9); test: KINOMEscan; type: binding; settings: read-out: %Ctrl @ 10000nM
T27 construct: purchased DiscoverX KINOMEscan

[3] = biological target: T28, JAK3(JH1domain-catalytic) (Homo sapiens, UniProt P52333); test: KINOMEscan; type: binding; settings: read-out: %Ctrl @ 10000nM
T28 construct: JAK3(JH1domain-catalytic); purchased DiscoverX KINOMEscan

ERBB2 = biological target: T29, ERBB2 (Homo sapiens, UniProt P04626); test: KINOMEscan; type: binding; settings: read-out: %Ctrl @ 10000nM
T29 construct: purchased DiscoverX KINOMEscan

MYO3B = biological target: T30, MYO3B (Homo sapiens, UniProt Q8WXR4); test: KINOMEscan; type: binding; settings: read-out: %Ctrl @ 10000nM
T30 construct: purchased DiscoverX KINOMEscan

CDK4 = biological target: T31, CDK4 (Homo sapiens, UniProt P11802); test: KINOMEscan; type: binding; settings: read-out: %Ctrl @ 10000nM
T31 construct: purchased DiscoverX KINOMEscan

RET(M918T) = biological target: T32, RET(M918T) (Homo sapiens, UniProt P07949, M918T); test: KINOMEscan; type: binding; settings: read-out: %Ctrl @ 10000nM
T32 construct: purchased DiscoverX KINOMEscan

JNK3 = biological target: T33, JNK3 (Homo sapiens, UniProt P53779); test: KINOMEscan; type: binding; settings: read-out: %Ctrl @ 10000nM
T33 construct: purchased DiscoverX KINOMEscan

PRKR = biological target: T34, PRKR (Homo sapiens, UniProt P19525); test: KINOMEscan; type: binding; settings: read-out: %Ctrl @ 10000nM
T34 construct: purchased DiscoverX KINOMEscan

PRP4 = biological target: T35, PRP4 (Homo sapiens, UniProt Q13523); test: KINOMEscan; type: binding; settings: read-out: %Ctrl @ 10000nM
T35 construct: purchased DiscoverX KINOMEscan

SIK2 = biological target: T36, SIK2 (Homo sapiens, UniProt Q9H0K1); test: KINOMEscan KdELECT; type: binding
T36 construct: DNA tag for qPCR (T7 phage fusion or DNA label); purchased DiscoverX KdELECT; host or cells: E. coli BL21-derived (T7 phage) or HEK-293

BUB1 = biological target: T37, BUB1 (Homo sapiens, UniProt O43683); test: KINOMEscan; type: binding; settings: read-out: %Ctrl @ 10000nM
T37 construct: purchased DiscoverX KINOMEscan

LATS2 = biological target: T38, LATS2 (Homo sapiens, UniProt Q9NRM7); test: KINOMEscan; type: binding; settings: read-out: %Ctrl @ 10000nM
T38 construct: purchased DiscoverX KINOMEscan

[4] = 10000 nM, 403 non-mutant kinases

T36 sequence (Q9H0K1 whole entry, the tested form may be a part): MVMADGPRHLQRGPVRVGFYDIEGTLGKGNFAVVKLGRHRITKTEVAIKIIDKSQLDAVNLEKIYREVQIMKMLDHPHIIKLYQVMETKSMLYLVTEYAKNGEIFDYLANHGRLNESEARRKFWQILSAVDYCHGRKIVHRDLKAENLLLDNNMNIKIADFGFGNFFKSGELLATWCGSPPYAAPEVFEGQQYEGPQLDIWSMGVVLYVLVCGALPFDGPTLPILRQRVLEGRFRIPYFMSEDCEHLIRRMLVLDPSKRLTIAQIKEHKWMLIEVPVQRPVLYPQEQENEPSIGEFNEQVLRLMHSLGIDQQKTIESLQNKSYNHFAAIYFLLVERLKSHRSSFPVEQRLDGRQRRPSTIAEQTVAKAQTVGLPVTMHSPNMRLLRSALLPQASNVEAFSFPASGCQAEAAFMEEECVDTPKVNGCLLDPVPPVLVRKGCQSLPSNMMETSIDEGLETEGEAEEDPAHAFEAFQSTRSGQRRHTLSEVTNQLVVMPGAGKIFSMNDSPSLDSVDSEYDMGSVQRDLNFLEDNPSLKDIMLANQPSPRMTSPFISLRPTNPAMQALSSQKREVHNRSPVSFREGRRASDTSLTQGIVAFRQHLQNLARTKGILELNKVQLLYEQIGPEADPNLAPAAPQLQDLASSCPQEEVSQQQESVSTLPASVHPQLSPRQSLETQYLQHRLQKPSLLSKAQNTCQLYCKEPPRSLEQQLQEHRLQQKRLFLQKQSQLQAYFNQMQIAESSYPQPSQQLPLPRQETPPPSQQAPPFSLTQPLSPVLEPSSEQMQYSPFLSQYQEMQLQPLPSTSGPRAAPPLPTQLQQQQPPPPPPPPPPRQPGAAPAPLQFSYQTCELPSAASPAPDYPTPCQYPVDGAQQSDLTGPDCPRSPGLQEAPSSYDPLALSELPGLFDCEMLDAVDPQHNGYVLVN
T33 sequence (P53779 whole entry): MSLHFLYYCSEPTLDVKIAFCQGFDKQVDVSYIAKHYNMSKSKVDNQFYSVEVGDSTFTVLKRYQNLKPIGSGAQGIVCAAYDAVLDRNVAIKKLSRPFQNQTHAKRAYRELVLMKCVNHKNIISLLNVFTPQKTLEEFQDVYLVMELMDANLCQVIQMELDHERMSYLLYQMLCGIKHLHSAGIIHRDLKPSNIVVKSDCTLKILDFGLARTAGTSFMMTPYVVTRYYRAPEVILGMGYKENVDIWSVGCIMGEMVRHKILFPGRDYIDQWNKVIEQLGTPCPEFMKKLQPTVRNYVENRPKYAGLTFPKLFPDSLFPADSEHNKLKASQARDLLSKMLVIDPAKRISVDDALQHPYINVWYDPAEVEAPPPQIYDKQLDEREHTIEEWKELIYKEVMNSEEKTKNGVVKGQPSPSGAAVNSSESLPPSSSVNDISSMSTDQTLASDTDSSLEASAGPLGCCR
T35 sequence (Q13523 whole entry): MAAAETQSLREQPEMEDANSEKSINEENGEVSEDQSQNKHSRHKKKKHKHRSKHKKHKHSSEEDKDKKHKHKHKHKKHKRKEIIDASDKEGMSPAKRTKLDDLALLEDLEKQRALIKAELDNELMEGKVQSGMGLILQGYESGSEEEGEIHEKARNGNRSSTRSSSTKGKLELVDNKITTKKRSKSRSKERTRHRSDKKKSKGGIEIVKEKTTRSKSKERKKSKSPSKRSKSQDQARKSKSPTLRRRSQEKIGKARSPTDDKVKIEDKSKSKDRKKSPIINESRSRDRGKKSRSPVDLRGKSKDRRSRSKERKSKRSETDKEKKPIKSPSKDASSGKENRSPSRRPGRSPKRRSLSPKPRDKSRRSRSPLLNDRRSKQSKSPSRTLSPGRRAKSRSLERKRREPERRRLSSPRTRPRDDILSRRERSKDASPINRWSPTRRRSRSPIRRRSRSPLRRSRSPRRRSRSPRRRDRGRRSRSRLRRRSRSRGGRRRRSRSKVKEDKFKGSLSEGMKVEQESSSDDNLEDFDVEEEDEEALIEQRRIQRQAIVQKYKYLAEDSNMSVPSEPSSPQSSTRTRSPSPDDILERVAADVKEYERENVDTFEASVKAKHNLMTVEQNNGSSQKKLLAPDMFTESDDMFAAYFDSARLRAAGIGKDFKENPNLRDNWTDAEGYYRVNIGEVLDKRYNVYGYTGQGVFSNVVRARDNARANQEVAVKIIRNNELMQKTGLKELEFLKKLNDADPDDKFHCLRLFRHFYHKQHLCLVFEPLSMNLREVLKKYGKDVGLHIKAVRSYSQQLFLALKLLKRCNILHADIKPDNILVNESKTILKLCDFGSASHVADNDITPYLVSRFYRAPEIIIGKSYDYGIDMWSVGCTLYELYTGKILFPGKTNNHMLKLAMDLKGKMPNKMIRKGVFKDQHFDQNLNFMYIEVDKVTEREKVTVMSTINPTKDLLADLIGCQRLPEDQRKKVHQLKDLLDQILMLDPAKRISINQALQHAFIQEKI
T31 sequence (P11802 whole entry): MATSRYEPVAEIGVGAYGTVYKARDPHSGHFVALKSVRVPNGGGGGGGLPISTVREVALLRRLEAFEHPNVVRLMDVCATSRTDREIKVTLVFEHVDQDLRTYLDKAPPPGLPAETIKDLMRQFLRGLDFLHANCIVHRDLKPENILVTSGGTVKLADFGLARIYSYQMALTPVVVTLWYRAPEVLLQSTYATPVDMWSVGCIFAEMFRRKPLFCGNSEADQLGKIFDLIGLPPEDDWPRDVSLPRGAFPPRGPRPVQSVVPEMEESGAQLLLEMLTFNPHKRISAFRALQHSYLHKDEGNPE
T20 sequence (Q96L34 whole entry): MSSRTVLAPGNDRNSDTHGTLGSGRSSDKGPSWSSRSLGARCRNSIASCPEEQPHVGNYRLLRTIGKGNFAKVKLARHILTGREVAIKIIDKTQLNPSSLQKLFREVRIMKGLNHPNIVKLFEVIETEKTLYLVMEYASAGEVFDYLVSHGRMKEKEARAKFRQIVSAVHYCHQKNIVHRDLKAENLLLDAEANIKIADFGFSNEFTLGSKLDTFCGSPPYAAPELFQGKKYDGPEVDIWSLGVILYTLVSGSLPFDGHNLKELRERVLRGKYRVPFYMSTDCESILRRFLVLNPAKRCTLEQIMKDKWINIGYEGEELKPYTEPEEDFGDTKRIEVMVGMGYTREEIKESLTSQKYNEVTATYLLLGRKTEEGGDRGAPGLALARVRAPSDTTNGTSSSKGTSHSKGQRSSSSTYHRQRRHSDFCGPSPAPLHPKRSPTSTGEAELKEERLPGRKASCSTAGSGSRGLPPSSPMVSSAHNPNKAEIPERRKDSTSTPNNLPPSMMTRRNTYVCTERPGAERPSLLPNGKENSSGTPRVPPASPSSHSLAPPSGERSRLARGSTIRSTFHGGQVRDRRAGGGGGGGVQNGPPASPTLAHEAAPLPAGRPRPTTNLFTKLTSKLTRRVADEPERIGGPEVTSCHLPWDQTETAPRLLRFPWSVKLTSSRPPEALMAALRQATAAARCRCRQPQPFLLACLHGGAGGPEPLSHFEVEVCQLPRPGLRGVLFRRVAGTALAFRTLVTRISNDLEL
T16 sequence (Q9BVS4 whole entry): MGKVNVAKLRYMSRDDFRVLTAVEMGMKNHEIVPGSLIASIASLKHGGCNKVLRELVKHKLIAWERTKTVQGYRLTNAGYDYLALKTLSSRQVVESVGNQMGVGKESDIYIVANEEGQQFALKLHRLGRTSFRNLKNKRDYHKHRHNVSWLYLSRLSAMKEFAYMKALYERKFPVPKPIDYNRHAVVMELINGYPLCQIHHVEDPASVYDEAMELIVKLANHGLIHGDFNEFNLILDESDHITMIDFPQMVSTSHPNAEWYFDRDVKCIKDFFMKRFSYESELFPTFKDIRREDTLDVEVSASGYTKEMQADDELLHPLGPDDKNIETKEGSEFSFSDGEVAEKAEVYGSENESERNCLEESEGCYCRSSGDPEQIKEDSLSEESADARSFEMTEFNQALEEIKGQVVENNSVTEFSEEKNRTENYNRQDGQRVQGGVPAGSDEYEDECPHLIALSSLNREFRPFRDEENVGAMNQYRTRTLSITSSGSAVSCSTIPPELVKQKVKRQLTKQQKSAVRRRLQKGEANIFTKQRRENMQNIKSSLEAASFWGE
T10 sequence (Q00535 whole entry): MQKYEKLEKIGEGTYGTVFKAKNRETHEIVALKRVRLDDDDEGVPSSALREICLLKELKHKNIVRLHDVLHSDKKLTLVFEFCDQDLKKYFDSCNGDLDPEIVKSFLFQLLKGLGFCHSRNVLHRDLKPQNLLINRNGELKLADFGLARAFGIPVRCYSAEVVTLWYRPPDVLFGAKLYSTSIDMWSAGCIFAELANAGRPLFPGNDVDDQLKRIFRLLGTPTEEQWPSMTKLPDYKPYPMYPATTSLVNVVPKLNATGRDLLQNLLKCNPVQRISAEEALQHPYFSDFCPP
T19 sequence (P24723 whole entry): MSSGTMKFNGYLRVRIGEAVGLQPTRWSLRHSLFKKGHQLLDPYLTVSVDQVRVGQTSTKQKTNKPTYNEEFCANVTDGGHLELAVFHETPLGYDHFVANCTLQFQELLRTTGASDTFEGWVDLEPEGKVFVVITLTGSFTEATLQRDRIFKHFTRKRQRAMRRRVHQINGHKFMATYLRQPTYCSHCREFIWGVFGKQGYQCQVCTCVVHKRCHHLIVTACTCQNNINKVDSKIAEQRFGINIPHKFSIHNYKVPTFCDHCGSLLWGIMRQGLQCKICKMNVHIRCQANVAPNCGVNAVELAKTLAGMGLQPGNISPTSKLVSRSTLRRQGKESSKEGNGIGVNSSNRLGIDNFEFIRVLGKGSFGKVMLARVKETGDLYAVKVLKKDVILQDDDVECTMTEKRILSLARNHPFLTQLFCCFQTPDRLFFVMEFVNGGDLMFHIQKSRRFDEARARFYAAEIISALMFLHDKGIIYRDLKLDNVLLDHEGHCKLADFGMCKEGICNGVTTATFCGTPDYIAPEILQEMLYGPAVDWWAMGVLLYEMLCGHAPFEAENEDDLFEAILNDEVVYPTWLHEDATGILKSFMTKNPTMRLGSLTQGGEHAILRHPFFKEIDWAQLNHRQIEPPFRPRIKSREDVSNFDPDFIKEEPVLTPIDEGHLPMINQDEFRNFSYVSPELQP

CC(C)c1ccc(CC(=O)N2CCN(c3ccc(C#N)nn3)CC2)cc1 [PZ-2891, 6-(4-(2-(4-isopropylphenyl)acetyl)piperazin-1-yl)pyridazine-3-carbonitrile]
remaining binding at 10 µM (TRPM6): 98% | remaining binding at 10 µM (CAMK2D): 91% | inhibitory activity in screen of 468 kinases (468 human kinases; 10 μM): did not exhibit off-target inhibition; also recorded: did not have significant inhibitory activity | Number of Hits S(1) (468 human kinases; [4]): 1 | Number of Hits S(10) (468 human kinases; [4]): 2 | Number of Hits S(35) (468 human kinases; [4]): 2 | remaining binding at 10 µM (INSR): 84% | remaining binding at 10 µM (PRKG1): 99% | remaining binding at 10 µM (GRK1): 72% | remaining binding at 10 µM (ASK2): 83% | remaining binding at 10 µM (EGFR(S752-I759del)): 100% | remaining binding at 10 µM (CAMK1): 93% | remaining binding at 10 µM (PAK6): 100% | remaining binding at 10 µM (CDK5): 87% | remaining binding at 10 µM [1]: 97% | remaining binding at 10 µM (ALK): 100% | remaining binding at 10 µM (PDGFRA): 70% | remaining binding at 10 µM (KIT): 75% | remaining binding at 10 µM (DDR1): 81% | remaining binding at 10 µM (RIOK2): 86% | remaining binding at 10 µM (TAK1): 67% | remaining binding at 10 µM (FLT4): 91% | remaining binding at 10 µM (PRKCH): 92% | remaining binding at 10 µM (MARK4): 81% | remaining binding at 10 µM (FLT3(D835Y)): 89% | half-life (Plasma stability): > 50 h | remaining binding at 10 µM [2]: 93% | remaining binding at 10 µM (BMX): 100% | remaining binding at 10 µM (MKNK1): 97% | remaining binding at 10 µM (MERTK): 95% | remaining binding at 10 µM (TRKA): 100% | remaining binding at 10 µM (PIM2): 96% | remaining binding at 10 µM [3]: 94% | remaining binding at 10 µM (ERBB2): 92% | remaining binding at 10 µM (MYO3B): 88% | remaining binding at 10 µM (CDK4): 99% | remaining binding at 10 µM (RET(M918T)): 95% | remaining binding at 10 µM (JNK3): 88% | remaining binding at 10 µM (PRKR): 100% | remaining binding at 10 µM (PRP4): 86% | Kd (SIK2; SIK2): > 30 µM | Kd (SIK2; SIK2 Replicate ID = 1): > 30 µM | Kd (SIK2; SIK2 Replicate ID = 2): > 30 µM | remaining binding at 10 µM (BUB1): 100% | remaining binding at 10 µM (LATS2): 82%
